Test results published in patent US8546392B2, “17Beta-hydroxysteroid dehydrogenase type 1 inhibitors for the treatment of hormone-related diseases” (Universitaet des Saarlandes, priority 2008, dated 2013).

Target: 17β-HSD1 (Homo sapiens (Human), UniProt P14061)
Test: 17β-HSD1 test assay (recombinant protein from Sf9 insect cells, 3H-estrone/NADPH)
Type: biochemical
Conditions: for inhibition at 1 µM: read-out: HSD 1 μM (% inhibition of HSD1), inhibitor 1 μM; for inhibition at 0.1 µM: read-out: HSD1 100 nM (% inhibition), inhibitor 100 nM
Description: Recombinant protein obtained from Sf9 insect cells (0.1 μg/ml) is incubated with 20 mM KH2PO4, pH 7.4, 30 nM ^3H-estrone and 1 mM NADPH for 30 min at RT in the presence of the potential inhibitor in a concentration of 1 μM or 100 nM. The stock solutions of the compounds are prepared in DMSO (dimethylsulfoxide) so that the final concentration of DMSO in the sample is 1%. After the prescribed incubation time, the reaction is quenched by adding trichloroacetic acid (10% final concentration). The samples are centrifuged in microtitration plates at 400 rpm for 10 min, and the supernatants are charged on a reversed-phase HPLC equipped with a Waters Symmetrie C18 column and Waters Sentry Guard column. The isocratic HPLC run is performed at RT with a flow rate of 1 ml/min and acetonitrile/water 48:52 as the eluent. The radioactivity was measured by means of a Packard Flow Scintillation Analyzer. […]

17β-HSD1, sequence (P14061 whole entry): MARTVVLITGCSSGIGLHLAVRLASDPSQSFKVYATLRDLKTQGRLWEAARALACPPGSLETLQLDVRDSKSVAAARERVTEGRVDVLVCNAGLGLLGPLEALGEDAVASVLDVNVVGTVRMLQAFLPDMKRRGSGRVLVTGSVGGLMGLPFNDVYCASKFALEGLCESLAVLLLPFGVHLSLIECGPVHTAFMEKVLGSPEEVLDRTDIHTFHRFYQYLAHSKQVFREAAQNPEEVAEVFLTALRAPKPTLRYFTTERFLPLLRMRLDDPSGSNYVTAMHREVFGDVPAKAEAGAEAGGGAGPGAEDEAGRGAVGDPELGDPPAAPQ

| SMILES | inhibition at 1 µM [%] | inhibition at 0.1 µM [%] |
| --- | --- | --- |
| Oc1cccc(-c2cc3cc(O)ccc3[nH]2)c1 [Compound 1, 2-(3-Hydroxyphenyl)-1H-indol-5-ol] | < 10 | < 10 |
| Oc1cccc(-c2ccc3ccccc3c2)c1 [Compound 3, 3-Naphthalene-2-ylphenol] | 61 | 26 |
| Oc1ccc2cc(-c3cccnc3)ccc2c1 [Compound 4, 3-(6-hydroxy-2-naphthyl)pyridine] | 31.6 | < 10 |
| Oc1ccc2cc(-c3cccs3)ccc2c1 [Compound 6] | < 10 | < 10 |
| Oc1cccc(-c2ccc3cc(O)ccc3n2)c1 [Compound 12, 2-(3-Hydroxyphenyl)quinolin-6-ol] | 56.9 | 24 |
| Oc1cccc(-c2cnc3ccccc3c2)c1 [Compound 13, 3-(Quinolin-3-yl)phenol] | < 10 | < 10 |
| Oc1ccc(-c2cnc3ccccc3c2)cc1 [Compound 14, 4-(Quinolin-3-yl)phenol] | < 10 | < 10 |
| Oc1cccc(-c2cnc3cc(O)ccc3c2)c1 [Compound 16, 3-(3-Hydroxyphenyl)quinolin-7-ol] | 56.9 | 24 |
| O=[N+]([O-])c1cccc(-c2ccc3cc(O)ccc3c2)c1 [Compound 22, 6-(3-Nitrophenyl)-naphthalene-2-ol] | < 10 | < 10 |
| Oc1cccc(-c2ccc3c(O)cccc3c2)c1 [Compound 24, 6-(3-Hydroxyphenyl)-1-naphthol] | < 10 | < 10 |
| COc1ccc(-c2ccc3c(O)cccc3c2)cc1 [Compound 25, 6-(4-Methoxyphenyl)-1-naphthol] | < 10 | < 10 |
| CNC(=O)c1cc2cc(-c3cccc(O)c3)ccc2cc1O [Compound 37, 3-Hydroxy-7-(3-hydroxyphenyl)-N-methyl-2-naphthamide] | 18 | < 10 |
| O=C(Nc1ccccc1)c1cc2cc(-c3cccc(O)c3)ccc2cc1O [Compound 38, 3-Hydroxy-7-(3-hydroxyphenyl)-N-phenyl-2-naphthamide] | 62 | 17 |
| O=C(c1c(O)ccc2cc(-c3cccc(O)c3)ccc12)N1CCOCC1 [Compound 44, (2-Hydroxy-6-(3-hydroxyphenyl)naphthalene-1-yl)(morpholino)methanone] | 62.4 | 27.8 |
| O=C(c1c(O)ccc2cc(-c3cccc(O)c3)ccc12)N1CCNCC1 [Compound 45, (2-Hydroxy-6-(3-hydroxyphenyl)naphthalene-1-yl)(piperazin-1-yl)methanone] | 44.5 | < 10 |
| O=C(Nc1nccs1)c1c(O)ccc2cc(-c3cccc(O)c3)ccc12 [Compound 46, 2-Hydroxy-6-(3-hydroxyphenyl)-N-(thiazol-2-yl)-1-naphthamide] | 53 | < 10 |
| Cc1noc(NC(=O)c2c(O)ccc3cc(-c4cccc(O)c4)ccc23)c1C [Compound 47, N-(3,4-Dimethylisoxazol-5-yl)-2-hydroxy-6-(3-hydroxyphenyl)-1-naphthamide] | 70 | 43 |
| O=C(Nc1ccccn1)c1c(O)ccc2cc(-c3cccc(O)c3)ccc12 [Compound 49, 2-Hydroxy-6-(3-hydroxyphenyl)-N-(pyridin-2-yl)-1-naphthamide] | 84 | 37 |
| O=C(Nc1ncccn1)c1c(O)ccc2cc(-c3cccc(O)c3)ccc12 [Compound 50, 2-Hydroxy-6-(3-hydroxyphenyl)-N-(pyrimidin-2-yl)-1-naphthamide] | 40 | < 10 |
| O=C(c1c(O)ccc2cc(-c3cccc(O)c3)ccc12)N1CCCCC1 [Compound 51, (2-Hydroxy-6-(3-hydroxyphenyl)naphthalene-1-yl)(piperidin-1-yl)methanone] | 73.4 | 28.8 |
| O=C(Nc1nccs1)c1cccc(-c2c(O)ccc3cc(-c4cccc(O)c4)ccc23)c1 [Compound 71, 3-(2-Hydroxy-6-(3-hydroxyphenyl)naphthalene-1-yl)-N-(thiazol-2-yl)benzamide] | 74.7 | 66.4 |
| O=S(=O)(Nc1cccc(-c2c(O)ccc3cc(-c4cccc(O)c4)ccc23)c1)c1cccc2cccnc12 [Compound 73, N-{3-[2-hydroxy-6-(3-hydroxyphenyl)-1-naphthyl]phenyl}quinoline-8-sulfonamide] | 80.5 | 71.2 |

Second part, the compound after the results:

| inhibition at 1 µM [%] | inhibition at 0.1 µM [%] | SMILES |
| --- | --- | --- |
| < 10 | < 10 | Oc1ccc2cc(-c3ccccc3)ccc2c1 [Compound 2, 6-Phenylnaphthalene-2-ol] |
| < 10 | < 10 | Oc1ccc2cc(-c3ccsc3)ccc2c1 [Compound 5] |
| 75.8 | 36.3 | O=C(O)c1cccc(-c2ccc3cc(O)ccc3c2)c1 [Compound 7, 3-(6-hydroxy-2-naphthyl)benzoic acid] |
| < 10 | < 10 | O=C(O)c1ccc(-c2ccc3cc(O)ccc3c2)cc1 [Compound 8, 4-(6-hydroxy-2-naphthyl)benzoic acid] |
| 18.5 | < 10 | CC(=O)Nc1cccc(-c2ccc3cc(O)ccc3c2)c1 [Compound 9, N-[3-(6-hydroxy-2-naphthyl)phenyl]acetamide] |
| < 10 | < 10 | OCc1cccc(-c2ccc3cc(O)ccc3c2)c1 [Compound 10, 6-[3-(hydroxymethyl)-phenyl]-2-naphthol] |
| 12.9 | < 10 | OCc1ccc(-c2ccc3cc(O)ccc3c2)cc1 [Compound 11, 6-[4-(hydroxymethyl)phenyl]-2-naphthol] |
| < 10 | < 10 | Oc1ccc(-c2cnc3cc(O)ccc3c2)cc1 [Compound 15, 3-(4-Hydroxyphenyl)quinolin-7-ol] |
| 57.7 | 30.3 | Oc1cncc(-c2ccc3cc(O)ccc3c2)c1 [Compound 17, 5-(6-Hydroxynaphthalene-2-yl)pyridin-3-ol] |
| < 10 | < 10 | Oc1ccc2cc(-c3ccccc3O)ccc2c1 [Compound 18, 6-(2-Hydroxyphenyl)-2-naphthol] |
| < 10 | < 10 | Oc1ccc(-c2ccc3cc(O)ccc3c2)cc1 [Compound 20, 6-(4-Hydroxyphenyl)-2-naphthol] |
| < 10 | < 10 | Oc1ccc(-c2ccc3c(O)cccc3c2)cc1 [Compound 21, 6-(4-Hydroxyphenyl)-1-naphthol] |
| < 10 | < 10 | Nc1cccc(-c2ccc3cc(O)ccc3c2)c1 [Compound 23, 6-(3-Aminophenyl)-naphthalen-2-ol] |
| 41.7 | 14.3 | Cc1cc(O)cc(-c2ccc3cc(O)ccc3c2)c1 [Compound 26, 6-(3-Hydroxy-5-methylphenyl)-2-naphthol] |
| < 10 | < 10 | Oc1ccc(-c2cc(O)cc(-c3ccc4cc(O)ccc4c3)c2)cc1 [Compound 27, 5-(6-Hydroxy-2-naphthyl)-1,1′-biphenyl-3,4′-diol] |
| < 10 | < 10 | Oc1cc(-c2ccc3cc(O)ccc3c2)cc(-c2ccc3cc(O)ccc3c2)c1 [Compound 28, 6-[3-Hydroxy-5-(6-hydroxy-2-naphthyl)phenyl]-2-naphthol] |
| < 10 | < 10 | CNC(=O)c1cc(O)cc(-c2ccc3cc(O)ccc3c2)c1 [Compound 29, 3-Hydroxy-5-(6-hydroxynaphthalen-2-yl)-N-methylbenzamide] |
| < 10 | < 10 | O=C(Nc1ccccc1)c1cc(O)cc(-c2ccc3cc(O)ccc3c2)c1 [Compound 30, 3-Hydroxy-5-(6-hydroxynaphthalene-2-yl)-N-phenylbenzamide] |
| < 10 | < 10 | CNC(=O)/C=C/c1cc(O)cc(-c2ccc3cc(O)ccc3c2)c1 [Compound 31, (E)-3-[3-Hydroxy-5-(6-hydroxynaphthalene-2-yl)phenyl]-N-methylacrylamide] |
| 19.6 | < 10 | O=C(/C=C/c1cc(O)cc(-c2ccc3cc(O)ccc3c2)c1)Nc1ccccc1 [Compound 32, (E)-3-[3-Hydroxy-5-(6-hydroxynaphthalene-2-yl)phenyl]-N-phenylacrylamide] |
| < 10 | < 10 | CNC(=O)CCc1cc(O)cc(-c2ccc3cc(O)ccc3c2)c1 [Compound 33, 3-[3-Hydroxy-5-(6-hydroxynaphthalene-2-yl)phenyl]-N-methylpropionamide] |
| 13.6 | < 10 | O=C(CCc1cc(O)cc(-c2ccc3cc(O)ccc3c2)c1)Nc1ccccc1 [Compound 34, 3-[3-Hydroxy-5-(6-hydroxynaphthalene-2-yl)phenyl]-N-phenylpropionamide] |
| < 10 | < 10 | CC(=O)Nc1ccc(-c2ccc3cc(O)ccc3c2)cc1O [Compound 35, N-[2-Hydroxy-4-(6-hydroxy-2-naphthyl)phenyl]acetamide] |
| < 10 | < 10 | O=C(Nc1ccc(-c2ccc3cc(O)ccc3c2)cc1O)c1ccccc1 [Compound 36, N-[2-Hydroxy-4-(6-hydroxy-2-naphthyl)phenyl]benzamide] |
